Experiment [1] concerns the target T1, Dihydrofolate reductase (Rattus norvegicus, UniProt Q920D2).
T1 sequence (Q920D2 whole entry): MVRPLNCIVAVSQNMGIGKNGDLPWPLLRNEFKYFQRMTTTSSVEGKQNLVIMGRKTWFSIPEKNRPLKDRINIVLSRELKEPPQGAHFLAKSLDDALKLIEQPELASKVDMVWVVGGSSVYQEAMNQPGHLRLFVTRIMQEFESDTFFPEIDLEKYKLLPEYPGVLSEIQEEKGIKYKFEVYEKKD
In words: Inhibitory concentration against Dihydrofolate reductase from rat liver.

The target in experiment [2] is T2, Dihydrofolate reductase (Mycobacterium avium, UniProt O30463).
T2 sequence (O30463 whole entry): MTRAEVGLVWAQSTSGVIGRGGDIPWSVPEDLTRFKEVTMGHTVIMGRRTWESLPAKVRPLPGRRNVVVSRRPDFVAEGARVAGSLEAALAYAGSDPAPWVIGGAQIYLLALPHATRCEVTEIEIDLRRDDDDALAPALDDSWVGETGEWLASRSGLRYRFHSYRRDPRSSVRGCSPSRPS
The experiment can be described thus: Inhibitory concentration against Dihydrofolate reductase from Mycobacterium avium (Mycobacterium avium).

The target of experiment [3] is T3, Dihydrofolate reductase (Pneumocystis carinii, UniProt P16184).
T3 sequence (P16184 whole entry): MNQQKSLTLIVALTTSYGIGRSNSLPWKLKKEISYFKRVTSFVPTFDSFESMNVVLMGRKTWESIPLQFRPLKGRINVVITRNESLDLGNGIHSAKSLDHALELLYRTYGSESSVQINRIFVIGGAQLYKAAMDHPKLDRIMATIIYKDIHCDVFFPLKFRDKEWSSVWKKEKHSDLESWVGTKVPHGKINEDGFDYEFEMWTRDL
In words: Inhibition of Dihydrofolate reductase from Pneumocystis carinii (Pneumocystis carinii).

Experiment [4] concerns the target T4, Bifunctional dihydrofolate reductase-thymidylate synthase (Toxoplasma gondii, UniProt Q07422).
T4 sequence (Q07422 whole entry): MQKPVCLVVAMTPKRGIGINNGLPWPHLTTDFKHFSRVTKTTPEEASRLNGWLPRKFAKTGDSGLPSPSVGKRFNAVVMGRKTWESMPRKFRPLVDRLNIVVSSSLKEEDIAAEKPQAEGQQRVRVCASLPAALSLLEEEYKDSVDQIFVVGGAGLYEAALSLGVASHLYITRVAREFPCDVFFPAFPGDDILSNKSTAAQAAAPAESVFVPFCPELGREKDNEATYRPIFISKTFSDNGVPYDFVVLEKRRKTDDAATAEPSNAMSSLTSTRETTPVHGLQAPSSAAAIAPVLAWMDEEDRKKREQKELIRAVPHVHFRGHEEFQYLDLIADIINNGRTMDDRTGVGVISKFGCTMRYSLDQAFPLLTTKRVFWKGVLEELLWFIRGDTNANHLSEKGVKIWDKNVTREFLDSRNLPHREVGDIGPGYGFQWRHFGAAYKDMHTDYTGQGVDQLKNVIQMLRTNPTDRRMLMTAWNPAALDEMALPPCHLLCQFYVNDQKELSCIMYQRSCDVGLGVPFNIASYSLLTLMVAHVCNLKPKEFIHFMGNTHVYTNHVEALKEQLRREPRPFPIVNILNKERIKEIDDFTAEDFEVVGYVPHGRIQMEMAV
In words: Inhibitory concentration against Dihydrofolate reductase from Toxoplasma gondii (Toxoplasma gondii).

Experiment [5] can be described thus: Selectivity ratio (IC50 rlDHFR)/(IC50 maDHFR).
The nature of experiment [6]: Selectivity ratio (IC50rlDHFR)/(IC50 tgDHFR).
The nature of experiment [7]: Selectivity ratio [(IC50 rlDHFR)/(IC50 pcDHFR).
For experiment [8], the target named is T5, Dihydrofolate reductase (Pneumocystis carinii) (UniProt P16184).
T5 sequence (whole entry): T3 sequence (P16184 whole entry)
The experiment can be described thus: Inhibition against Dihydrofolate reductase from Pneumocystis carinii (Pneumocystis carinii) at 12 uM of compound.

One may read the IC50 as the concentration needed to halve the response being measured. Low values mean inhibition by little substance, high ones a need for much substance. Consider `COc1ccccc1Sc1[nH]c2nc(N)nc(N)c2c1C`, for which the IC50 worked out at 2.32 µM at Dihydrofolate reductase [1], 0.3 µM against Dihydrofolate reductase [2] and 22 µM against Dihydrofolate reductase [3].
For the molecule `COc1ccc(OC)c(Sc2[nH]c3nc(N)nc(N)c3c2C)c1`, the IC50 in experiment [4] turned out to be 0.17 µM; on Dihydrofolate reductase [1], 7.8 µM.
For `Cc1c(Sc2ccc(Cl)cc2)[nH]c2nc(N)nc(N)c12`, the IC50 on Dihydrofolate reductase [1] worked out at 19 µM; on Dihydrofolate reductase [2] it was 4 µM; on Dihydrofolate reductase [3], 16.7 µM.
For `COc1cccc(Sc2[nH]c3nc(N)nc(N)c3c2C)c1` the same measures were 2.06 µM, 1.37 µM and 60.2 µM.
`COc1cc(CC2CN=C(N)N=C2N)cc(OC)c1OC` (centres undefined): the IC50 at Dihydrofolate reductase [2] came to 0.3 µM. This counts as sub-micromolar.
Turning to `COc1ccc(Sc2[nH]c3nc(N)nc(N)c3c2C)cc1`, the IC50 at Dihydrofolate reductase [1] was 31.3 µM; at Dihydrofolate reductase [2], 0.6 µM; at Dihydrofolate reductase [3] it was 112 µM.
On to `Cc1c(Sc2cccc3ccccc23)[nH]c2nc(N)nc(N)c12`, for which the IC50 amounted to 0.16 µM in experiment [4] and 0.7 µM against Dihydrofolate reductase [2]. The Selectivity ratio stood at 6.92 in experiment [5], 27.9 in experiment [6] and 0.12 in experiment [7].
For orientation: inhibition means the percentage by which the read-out fell short of the control. Higher therefore signals strong suppression. Consider `Cc1c(Sc2ccc(Cl)cc2Cl)[nH]c2nc(N)nc(N)c12`, for which the IC50 is 20 µM in experiment [4], 110 µM against Dihydrofolate reductase [1], 19 µM against Dihydrofolate reductase [2] and more than 12 µM at Dihydrofolate reductase [3]. The inhibition in experiment [8] is 14%. The values for the Selectivity ratio in experiment [5] and in experiment [6] were 5.79 and 5.5, respectively.
On to `Cc1c(Sc2cccc(Cl)c2)[nH]c2nc(N)nc(N)c12`, for which the IC50 against Dihydrofolate reductase [1] came to 47.7 µM; against Dihydrofolate reductase [2], 4.4 µM.

Source of the values: ChEMBL document CHEMBL1148359, “Design, synthesis, and biological evaluation of 2,4-diamino-5-methyl-6-substituted-pyrrolo[2,3-d]pyrimidines as dihydrofolate reductase inhibitors” (J Med Chem, 2004).
